Test results as given in patent US8106045B2, “2-morpholino-4-pyrimidone compound” (Mitsubishi Tanabe Pharma Corporation, priority 2004, dated 2012).

molecular target: T1, bovine cerebral TPK1 (Bos taurus, UniProt A0A3Q1MT31); assay: Inhibitory activity against P-GS1 phosphorylation by bovine cerebral TPK1; assay type: biochemical; conditions: 41.7 μM [γ-32P] ATP, 25° C. for 2 hours
T1 construct: bovine cerebral TPK1; from tissue; host or cells: bovine cerebrum (brain)
Experimental: Experiment 1: Inhibitory Activity of the Medicament of the Present Invention Against P-GS1 Phosphorylation by Bovine Cerebral TPK1
A mixture containing 100 mM MES-sodium hydroxide (pH 6.5), 1 mM magnesium acetate, 0.5 mM EGTA, 5 mM B-mercaptoethanol, 0.02% Tween 20, 10% glycerol, 12 μg/ml P-GS1, 41.7 μM [γ-^32P] ATP (68 kBq/ml), bovine cerebral TPK1 and a compound shown in Table (a final mixture contained 1.7% DMSO deriving from a solution of a test compound prepared in the presence of 10% DMSO) was used as a reaction system. The phosphorylation was started by adding ATP, and the reaction was conducted at 25° C. for 2 hours, and then stopped by adding 21% perchloric acid on ice cooling. The reaction mixture was centrifuged at 12,000 rpm for 5 minutes and adsorbed on P81 paper (Whatmann), and then the paper was washed four times with 75 mM phosphoric acid, three times with water and once with acetone. The paper was dried, and the residual radioactivity was measured using a liquid scintillation counter.

T1 sequence (A0A3Q1MT31 1-419): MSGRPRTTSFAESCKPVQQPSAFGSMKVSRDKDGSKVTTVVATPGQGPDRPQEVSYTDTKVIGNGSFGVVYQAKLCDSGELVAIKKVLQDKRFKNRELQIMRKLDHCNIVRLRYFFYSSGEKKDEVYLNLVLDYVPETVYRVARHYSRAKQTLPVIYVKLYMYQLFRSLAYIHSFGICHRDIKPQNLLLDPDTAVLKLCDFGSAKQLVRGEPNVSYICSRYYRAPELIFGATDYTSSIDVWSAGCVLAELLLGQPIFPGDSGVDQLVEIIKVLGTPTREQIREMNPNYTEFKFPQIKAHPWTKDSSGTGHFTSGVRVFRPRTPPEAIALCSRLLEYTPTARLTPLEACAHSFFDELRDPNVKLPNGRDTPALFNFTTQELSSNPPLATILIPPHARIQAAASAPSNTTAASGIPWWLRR

| IC50 | Structure (SMILES) |
| --- | --- |
| 9.7 nM | CN(C)C(=O)Nc1ccc([C@H]2CN(c3nc(-c4ccncc4)cc(=O)n3C)CCO2)cc1 [Compound No. 237, 1,1-Dimethyl-3-{4-[4-(1-methyl-6-oxo-4-pyridin-4-yl-1,6-dihydro-pyrimidin-2-yl)-morpholin-2-yl]-phenyl}-urea] |
| 3.4 nM | Cn1c(N2CCO[C@@H](c3ccc(N4CCC(N5CCCC5)CC4)cc3)C2)nc(-c2ccncc2)cc1=O [compound 6] |
| 4.8 nM | Cn1c(N2CCO[C@@H](c3ccc(Nc4ccncc4)cc3)C2)nc(-c2ccncc2)cc1=O [compound 50] |
| 5.1 nM | Cn1c(N2CCO[C@@H](c3ccc(NC(=O)c4ccccc4)cc3)C2)nc(-c2ccncc2)cc1=O [compound 70] |
| 5.2 nM | Cn1c(N2CCO[C@@H](c3ccc(NC(=O)CN4CCN(c5ccccc5)CC4)cc3)C2)nc(-c2ccncc2)cc1=O [compound 100] |

Further lines, the molecule ahead of its results:

| Structure (SMILES) | IC50 |
| --- | --- |
| CN(c1ccc([C@H]2CN(c3nc(-c4ccncn4)cc(=O)n3C)CCO2)cc1)[C@@H]1CCOC1 [Compound No. 091, 2-((2S)-2-(4-(N-methyl-N-((3R)-tetrahydrofuran-3yl)amino)phenyl)morpholin-4-yl)-3-methyl-6-(pyrimidin-4-yl)-3H-pyrimidin-4-one] | 6.1 nM |
| Cn1c(N2CCO[C@@H](c3ccc(OCCCN4CCCC4)cc3)C2)nc(-c2ccncn2)cc1=O [Compound No. 202, 2-((2S)-2-(4-(3-(pyrrolidin-1-yl)propyloxy)phenyl)morpholine-4-yl)-3-methyl-6-(pyrimidin-4-yl)-pyrimidin-4-one] | 0.43 nM |
| Cn1c(N2CCO[C@@H](c3ccc(C(=O)NCCO)cc3)C2)nc(-c2ccncn2)cc1=O [Compound No. 210, N-(2-hydroxy-ethyl)-4-[(2S)-4-(1-methyl-6-oxo-1,6-dihydro-[4,4′]bipyrimidinyl-2-yl)-morpholin-2-yl]-benzamide] | 5.4 nM |
| CN(C)CC(=O)Nc1ccc([C@H]2CN(c3nc(-c4ccncn4)cc(=O)n3C)CCO2)cc1 [Compound No. 220, N^2,N^2-Dimethyl-N^1-{4-[(2S)-4-(1-methyl-6-oxo-1,6-dihydro-4,4′-bipyrimidin-2-yl)morpholin-2-yl]phenyl}glycinamide] | 0.48 nM |
| COC(=O)Nc1ccc([C@H]2CN(c3nc(-c4ccncc4)cc(=O)n3C)CCO2)cc1 [Compound No. 231, Methyl (4-((2S)-4-(3-methyl-4-oxo-6-(pyridin-4-yl)-3H-pyrimidin-2-yl)morpholin-2-yl)-phenyl)carbamate] | 5.8 nM |
